Experimental findings from ChEMBL document CHEMBL1201862, “PubChem BioAssay data set” (2004) are described below.

Structures are written as SMILES. The source made the active and inactive calls.

Test [1] deals with Voltage-dependent T-type calcium channel subunit alpha-1H (Homo sapiens, UniProt O95180). In kind it is functional.
The target of a further test is T1, Leucine aminopeptidase (Plasmodium falciparum 3D7, UniProt Q8IL11).
T1 sequence (Q8IL11 whole entry): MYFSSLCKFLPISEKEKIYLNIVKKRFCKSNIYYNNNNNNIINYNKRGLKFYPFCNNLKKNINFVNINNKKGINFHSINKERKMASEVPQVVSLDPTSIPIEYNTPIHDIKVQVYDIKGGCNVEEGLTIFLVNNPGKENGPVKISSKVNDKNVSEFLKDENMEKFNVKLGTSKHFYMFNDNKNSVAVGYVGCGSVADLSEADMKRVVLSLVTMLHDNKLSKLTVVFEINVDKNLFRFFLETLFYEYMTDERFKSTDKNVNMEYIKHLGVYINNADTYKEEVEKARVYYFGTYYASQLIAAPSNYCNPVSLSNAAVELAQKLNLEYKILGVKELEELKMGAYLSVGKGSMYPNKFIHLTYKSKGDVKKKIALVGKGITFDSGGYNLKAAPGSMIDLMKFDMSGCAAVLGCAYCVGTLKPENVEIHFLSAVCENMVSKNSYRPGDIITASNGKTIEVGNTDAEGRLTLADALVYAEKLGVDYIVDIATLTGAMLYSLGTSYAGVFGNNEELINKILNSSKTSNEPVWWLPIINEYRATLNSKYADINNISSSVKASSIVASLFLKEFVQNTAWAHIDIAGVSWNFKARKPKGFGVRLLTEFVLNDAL
Put plainly: P. falciparum M17LAP inhibitors, primary screen, biochemical, fluorogenic H-Leu-NHMec substrate, 1536-well (AID 1619). Format: functional.

Test [2] in a line: Luminescence Cell-Based Dose Retest to Confirm Inhibitors of Cancer Stem Cells. [Related pubchem assays (depositor defined):AID2717, AID2721]. Format: functional. To be noted: Homo sapiens.
The target of a further test is T2, Aminopeptidase N (Plasmodium falciparum FcB1/Columbia, UniProt O96935).
T2 sequence (O96935 whole entry): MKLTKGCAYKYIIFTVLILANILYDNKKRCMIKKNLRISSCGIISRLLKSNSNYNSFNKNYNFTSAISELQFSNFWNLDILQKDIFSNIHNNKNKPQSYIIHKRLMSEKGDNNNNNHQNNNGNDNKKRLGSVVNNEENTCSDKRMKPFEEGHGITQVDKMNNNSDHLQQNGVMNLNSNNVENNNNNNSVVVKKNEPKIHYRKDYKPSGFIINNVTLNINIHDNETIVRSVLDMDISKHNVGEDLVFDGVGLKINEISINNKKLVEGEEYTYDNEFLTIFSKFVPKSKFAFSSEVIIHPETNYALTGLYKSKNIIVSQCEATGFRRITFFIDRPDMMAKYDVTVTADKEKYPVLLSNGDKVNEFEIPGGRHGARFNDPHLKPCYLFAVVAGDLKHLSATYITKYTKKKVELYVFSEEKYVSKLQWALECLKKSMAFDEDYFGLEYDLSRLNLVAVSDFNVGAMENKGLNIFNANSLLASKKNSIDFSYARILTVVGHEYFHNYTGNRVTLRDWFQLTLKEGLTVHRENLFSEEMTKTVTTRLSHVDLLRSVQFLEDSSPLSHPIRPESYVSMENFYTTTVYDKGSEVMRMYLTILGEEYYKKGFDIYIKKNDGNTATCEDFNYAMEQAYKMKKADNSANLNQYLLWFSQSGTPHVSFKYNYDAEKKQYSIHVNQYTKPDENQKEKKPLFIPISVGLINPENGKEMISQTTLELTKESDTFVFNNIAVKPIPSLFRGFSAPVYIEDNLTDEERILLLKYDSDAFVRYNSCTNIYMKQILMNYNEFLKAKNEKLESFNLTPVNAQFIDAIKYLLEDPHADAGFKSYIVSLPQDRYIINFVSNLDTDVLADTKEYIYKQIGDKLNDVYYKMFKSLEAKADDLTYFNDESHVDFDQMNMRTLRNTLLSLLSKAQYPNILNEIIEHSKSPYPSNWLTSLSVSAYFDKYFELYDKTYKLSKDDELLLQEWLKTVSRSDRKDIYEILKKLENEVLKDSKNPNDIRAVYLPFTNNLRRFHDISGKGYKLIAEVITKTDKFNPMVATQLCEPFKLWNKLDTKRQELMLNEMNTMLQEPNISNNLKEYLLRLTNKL
Put plainly: malaria alanyl aminopeptidase activity blockers – biochemical, fluorogenic H-Leu-NHMec substrate, 1536-well (AID 1445). Also on record: species or system Plasmodium falciparum 3D7, 3D7.

The subject of a further test is P388. In words: cells. Format: functional. The settings on record: Mus musculus.
The subject of the next test is P388/ADR. In words: cells. In kind it is functional. The settings on record: Mus musculus.
The subject of another test is SN12K1. Put plainly: cells. In kind it is functional. The settings on record: Homo sapiens.
The target of test [3] is Induced myeloid leukemia cell differentiation protein Mcl-1 (Homo sapiens, UniProt Q07820). In kind it is functional.
Test [4] in a line: THP-1 cell cytotoxicity, dose response, cytotoxicity control for non-replicating M. tuberculosis project (AID 489025). In kind it is functional.
The nature of test [5]: HepG2 cell cytotoxicity, dose response, cytotoxicity control for non-replicating M. tuberculosis project (AID 489018). In kind it is functional. To be noted: Mycobacterium tuberculosis.
A short description of test [6]: Vero E6 cell cytotoxicity, dose response, cytotoxicity control for non-replicating M. tuberculosis project, secondary assay (AID 492998). Format: functional, VeroE6. The settings on record: Vero C1008.
Test [7] in a line: Trypanosoma cruzi growth suppression in host cells – NIH3T3 host cells, beta-gal luminescence, confirmation (AID 2044).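 Also: intracellular parasites grown in NIH/3T3 mouse fibroblasts as host cells; luminescent beta-galactosidase reporter signal from transgenic T. cruzi replicating inside host cells; inhibitors lower the luminescence signal.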 Format: functional, cell-based.
A short description of test [8]: NIH3T3 cell viability loss – ATP luminescence, mouse fibroblasts, counter-screen, dose response (AID 2010).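 Also: cells exposed to compound for about 90 hours before reading.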 Format: functional, cell-based.
Test [9] has as its target T3, Fatty acid synthase (Homo sapiens, UniProt P49327). In words: inhibition of human FAS-TE enzyme activity – biochemical, endpoint fluorescence intensity, uHTS hits, dose response (AID 624327).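 Also: fluorescence from hydrolysis of an O-methyl fluorescein acyl ester substrate by the enzyme.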 In kind it is functional.
The target of test [10] is T3, Fatty acid synthase. Put plainly: inhibition of human FAS-TE enzyme activity – biochemical, kinetic fluorescence intensity, dose response (AID 624326).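 Also: rate of fluorescence rise from hydrolysis of a fluorogenic O-methyl fluorescein ester substrate.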 In kind it is functional.
Test [11] addresses T4, DNA repair and recombination protein RAD54-like (Homo sapiens, UniProt Q92698).
T4 sequence (Q92698 whole entry): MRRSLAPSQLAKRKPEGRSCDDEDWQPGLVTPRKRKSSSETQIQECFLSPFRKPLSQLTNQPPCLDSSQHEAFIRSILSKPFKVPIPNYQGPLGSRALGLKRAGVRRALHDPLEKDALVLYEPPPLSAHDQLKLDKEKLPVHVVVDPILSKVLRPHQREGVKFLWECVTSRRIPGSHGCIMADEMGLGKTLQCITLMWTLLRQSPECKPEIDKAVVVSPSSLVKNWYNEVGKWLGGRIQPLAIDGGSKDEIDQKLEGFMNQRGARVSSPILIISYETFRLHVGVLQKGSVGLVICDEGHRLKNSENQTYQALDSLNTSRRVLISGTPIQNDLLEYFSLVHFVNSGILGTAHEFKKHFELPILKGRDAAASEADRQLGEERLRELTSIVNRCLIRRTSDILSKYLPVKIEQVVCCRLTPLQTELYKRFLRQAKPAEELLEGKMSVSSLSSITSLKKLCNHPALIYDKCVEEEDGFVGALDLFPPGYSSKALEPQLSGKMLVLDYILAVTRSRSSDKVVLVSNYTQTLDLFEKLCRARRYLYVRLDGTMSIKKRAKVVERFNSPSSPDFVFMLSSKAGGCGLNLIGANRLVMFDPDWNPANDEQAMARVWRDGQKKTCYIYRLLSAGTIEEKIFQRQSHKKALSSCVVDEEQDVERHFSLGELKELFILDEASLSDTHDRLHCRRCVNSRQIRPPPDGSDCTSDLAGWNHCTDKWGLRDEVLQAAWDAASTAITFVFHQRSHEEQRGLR
In words: RAD54 Holliday junction migration blockers – biochemical, fluorescence, cherry-picked samples, dose series, confirmation (AID 651657). In kind it is functional.

A short description of test [12]: viability of PTEN-deleted HCT116 cells – cell-based, HCT116 PTEN knockout, dose response (AID 1047).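 Also: HCT116 colon tumor cells with PTEN knocked out; cells exposed to compound for 60 hours before readout; potency for loss of cell viability measured by luminescence.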 In kind it is functional.
Test [13] is described as follows: viability of HCT116 lacking mutant beta-catenin – cell-based, human colon tumor, dose response (AID 1045).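 Also: HCT116 colon tumor cells with beta catenin knocked out; cells exposed to compound for 60 hours.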 Format: functional.
Another test can be described thus: cells. In kind it is functional.
Test [14] in a line: microbe, parasite or virus in culture. To be noted: Mycobacterium tuberculosis. Format: functional.

Sequence of Voltage-dependent T-type calcium channel subunit alpha-1H (O95180 whole entry): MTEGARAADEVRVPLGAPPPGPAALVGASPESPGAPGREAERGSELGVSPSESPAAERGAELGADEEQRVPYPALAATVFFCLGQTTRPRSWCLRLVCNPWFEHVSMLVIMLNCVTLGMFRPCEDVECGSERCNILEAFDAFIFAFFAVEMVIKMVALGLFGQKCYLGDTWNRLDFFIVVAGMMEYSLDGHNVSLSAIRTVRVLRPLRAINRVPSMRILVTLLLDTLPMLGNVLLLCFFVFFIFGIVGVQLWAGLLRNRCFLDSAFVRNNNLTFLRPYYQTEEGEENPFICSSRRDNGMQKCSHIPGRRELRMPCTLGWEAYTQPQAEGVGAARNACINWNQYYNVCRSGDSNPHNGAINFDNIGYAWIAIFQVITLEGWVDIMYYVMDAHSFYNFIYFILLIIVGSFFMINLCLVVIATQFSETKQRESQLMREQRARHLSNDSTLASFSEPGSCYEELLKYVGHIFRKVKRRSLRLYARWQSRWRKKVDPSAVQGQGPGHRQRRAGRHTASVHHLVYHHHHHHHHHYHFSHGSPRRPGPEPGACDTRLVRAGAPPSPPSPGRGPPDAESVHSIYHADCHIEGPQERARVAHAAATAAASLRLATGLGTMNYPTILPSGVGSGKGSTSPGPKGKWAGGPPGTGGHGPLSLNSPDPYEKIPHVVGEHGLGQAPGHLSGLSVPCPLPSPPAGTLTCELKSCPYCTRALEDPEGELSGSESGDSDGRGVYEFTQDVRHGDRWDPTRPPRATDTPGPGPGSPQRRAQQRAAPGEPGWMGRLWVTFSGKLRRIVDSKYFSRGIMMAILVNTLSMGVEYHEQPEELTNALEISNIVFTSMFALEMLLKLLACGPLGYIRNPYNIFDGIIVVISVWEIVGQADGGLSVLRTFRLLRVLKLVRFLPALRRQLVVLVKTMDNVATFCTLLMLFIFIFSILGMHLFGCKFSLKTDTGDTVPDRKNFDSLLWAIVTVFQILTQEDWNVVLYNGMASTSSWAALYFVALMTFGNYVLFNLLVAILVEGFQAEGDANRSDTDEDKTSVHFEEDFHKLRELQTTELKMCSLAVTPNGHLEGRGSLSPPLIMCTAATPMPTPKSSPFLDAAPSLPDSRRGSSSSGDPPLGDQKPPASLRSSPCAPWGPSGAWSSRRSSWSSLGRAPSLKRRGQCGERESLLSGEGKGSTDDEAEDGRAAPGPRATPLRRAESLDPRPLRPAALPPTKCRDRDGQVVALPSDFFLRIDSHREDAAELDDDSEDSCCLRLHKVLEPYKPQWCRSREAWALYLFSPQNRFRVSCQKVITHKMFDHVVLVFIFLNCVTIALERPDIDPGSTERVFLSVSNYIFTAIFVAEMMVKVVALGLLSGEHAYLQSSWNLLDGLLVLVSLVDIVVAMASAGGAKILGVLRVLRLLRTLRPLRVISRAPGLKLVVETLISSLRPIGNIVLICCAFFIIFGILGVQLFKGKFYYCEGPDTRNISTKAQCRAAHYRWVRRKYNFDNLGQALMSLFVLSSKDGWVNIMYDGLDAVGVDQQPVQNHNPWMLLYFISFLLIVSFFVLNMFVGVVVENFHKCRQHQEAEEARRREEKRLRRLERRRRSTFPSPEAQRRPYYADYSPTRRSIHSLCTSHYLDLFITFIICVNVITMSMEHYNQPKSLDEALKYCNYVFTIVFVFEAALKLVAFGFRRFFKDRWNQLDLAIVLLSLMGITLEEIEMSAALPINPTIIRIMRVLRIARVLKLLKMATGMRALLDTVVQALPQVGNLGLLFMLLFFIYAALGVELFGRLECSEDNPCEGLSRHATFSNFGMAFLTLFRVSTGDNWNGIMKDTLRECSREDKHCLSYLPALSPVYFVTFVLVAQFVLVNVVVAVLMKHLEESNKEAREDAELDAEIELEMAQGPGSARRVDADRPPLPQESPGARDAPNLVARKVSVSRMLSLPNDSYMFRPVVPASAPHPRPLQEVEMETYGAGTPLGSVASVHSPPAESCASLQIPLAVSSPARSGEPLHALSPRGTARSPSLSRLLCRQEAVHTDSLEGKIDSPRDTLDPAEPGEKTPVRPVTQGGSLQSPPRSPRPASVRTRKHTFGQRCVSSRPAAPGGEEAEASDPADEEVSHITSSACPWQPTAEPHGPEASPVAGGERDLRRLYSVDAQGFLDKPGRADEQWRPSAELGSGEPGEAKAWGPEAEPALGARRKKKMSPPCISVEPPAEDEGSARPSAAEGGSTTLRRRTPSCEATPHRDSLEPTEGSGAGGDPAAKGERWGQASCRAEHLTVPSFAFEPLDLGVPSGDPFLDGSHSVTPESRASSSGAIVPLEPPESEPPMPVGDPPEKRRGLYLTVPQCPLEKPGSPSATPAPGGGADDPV
T3 sequence (P49327 whole entry): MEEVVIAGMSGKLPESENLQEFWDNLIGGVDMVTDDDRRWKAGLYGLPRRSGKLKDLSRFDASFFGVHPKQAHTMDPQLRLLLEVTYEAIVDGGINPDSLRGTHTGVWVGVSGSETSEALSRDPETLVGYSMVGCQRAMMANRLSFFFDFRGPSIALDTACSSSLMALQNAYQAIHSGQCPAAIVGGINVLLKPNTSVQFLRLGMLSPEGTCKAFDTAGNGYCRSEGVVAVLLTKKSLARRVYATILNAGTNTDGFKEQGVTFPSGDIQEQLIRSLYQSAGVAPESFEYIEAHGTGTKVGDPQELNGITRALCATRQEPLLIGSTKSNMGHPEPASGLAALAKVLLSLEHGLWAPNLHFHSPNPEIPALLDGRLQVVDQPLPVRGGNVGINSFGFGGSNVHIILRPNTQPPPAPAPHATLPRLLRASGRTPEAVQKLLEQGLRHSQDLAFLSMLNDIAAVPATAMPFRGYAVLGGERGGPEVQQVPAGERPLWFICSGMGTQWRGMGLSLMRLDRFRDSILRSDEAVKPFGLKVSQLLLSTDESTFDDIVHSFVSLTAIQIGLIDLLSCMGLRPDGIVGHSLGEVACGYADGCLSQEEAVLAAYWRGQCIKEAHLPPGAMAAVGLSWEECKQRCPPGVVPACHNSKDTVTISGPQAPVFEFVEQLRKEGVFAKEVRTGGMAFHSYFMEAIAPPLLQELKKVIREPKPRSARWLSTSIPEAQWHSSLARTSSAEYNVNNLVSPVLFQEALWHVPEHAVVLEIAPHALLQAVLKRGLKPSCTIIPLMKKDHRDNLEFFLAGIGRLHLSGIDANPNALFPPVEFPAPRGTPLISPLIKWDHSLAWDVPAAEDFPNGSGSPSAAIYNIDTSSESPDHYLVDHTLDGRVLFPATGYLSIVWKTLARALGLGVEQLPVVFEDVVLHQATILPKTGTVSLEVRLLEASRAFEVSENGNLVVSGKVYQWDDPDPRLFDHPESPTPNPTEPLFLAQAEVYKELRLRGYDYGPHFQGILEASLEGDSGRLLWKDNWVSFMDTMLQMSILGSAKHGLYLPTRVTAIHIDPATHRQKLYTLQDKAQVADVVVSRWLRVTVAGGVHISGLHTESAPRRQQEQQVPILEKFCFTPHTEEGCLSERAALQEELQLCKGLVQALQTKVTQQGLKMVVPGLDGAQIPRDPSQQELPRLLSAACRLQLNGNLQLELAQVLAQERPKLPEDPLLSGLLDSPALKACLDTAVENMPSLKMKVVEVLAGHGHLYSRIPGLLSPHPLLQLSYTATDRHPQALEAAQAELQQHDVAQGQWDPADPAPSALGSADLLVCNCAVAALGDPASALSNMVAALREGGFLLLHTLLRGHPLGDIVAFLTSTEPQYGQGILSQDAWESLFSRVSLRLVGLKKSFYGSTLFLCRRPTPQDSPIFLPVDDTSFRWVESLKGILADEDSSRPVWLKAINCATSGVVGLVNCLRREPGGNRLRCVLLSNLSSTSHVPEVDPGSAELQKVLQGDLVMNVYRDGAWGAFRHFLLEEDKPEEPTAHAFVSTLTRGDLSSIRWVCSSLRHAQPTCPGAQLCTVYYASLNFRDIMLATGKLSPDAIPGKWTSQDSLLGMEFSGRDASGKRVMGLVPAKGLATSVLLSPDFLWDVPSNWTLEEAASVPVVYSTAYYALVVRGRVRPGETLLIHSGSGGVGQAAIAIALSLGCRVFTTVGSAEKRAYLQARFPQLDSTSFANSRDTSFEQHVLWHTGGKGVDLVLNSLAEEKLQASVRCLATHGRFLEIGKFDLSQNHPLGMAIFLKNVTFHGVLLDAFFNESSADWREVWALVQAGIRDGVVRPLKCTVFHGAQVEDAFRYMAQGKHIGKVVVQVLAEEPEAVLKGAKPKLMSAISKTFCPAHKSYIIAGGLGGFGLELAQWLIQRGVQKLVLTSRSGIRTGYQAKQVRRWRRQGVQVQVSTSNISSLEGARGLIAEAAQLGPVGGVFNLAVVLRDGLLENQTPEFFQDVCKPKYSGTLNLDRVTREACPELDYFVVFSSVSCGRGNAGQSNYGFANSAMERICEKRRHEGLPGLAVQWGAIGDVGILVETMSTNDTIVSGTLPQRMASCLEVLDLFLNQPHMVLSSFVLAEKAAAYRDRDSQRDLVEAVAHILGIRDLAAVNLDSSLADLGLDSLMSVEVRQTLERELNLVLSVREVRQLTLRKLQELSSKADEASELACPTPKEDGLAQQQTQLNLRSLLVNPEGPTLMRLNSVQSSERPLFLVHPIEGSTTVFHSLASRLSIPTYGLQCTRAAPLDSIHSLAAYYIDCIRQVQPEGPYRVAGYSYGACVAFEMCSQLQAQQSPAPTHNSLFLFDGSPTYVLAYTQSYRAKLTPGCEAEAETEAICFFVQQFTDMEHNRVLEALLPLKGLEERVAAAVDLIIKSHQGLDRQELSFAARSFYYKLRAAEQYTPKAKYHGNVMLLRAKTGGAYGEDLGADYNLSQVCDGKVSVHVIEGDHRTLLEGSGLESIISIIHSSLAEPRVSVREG

Consider `O=C(CSc1nnc(-c2ccc(Cl)cc2)n1Cc1ccco1)NCc1ccc2c(c1)OCO2`, for which the EC50 in [1] is 1.11 µM (active).

Regarding `CC1CCN(S(=O)(=O)c2ccc(NC(=O)CSc3ncccc3C(=O)O)cc2)CC1`, the IC50 at Leucine aminopeptidase is 9.68 µM (active).

On to `CCC1=NN2C(=N)/C(=C/c3c(C)nn(-c4ccccc4)c3Cl)C(=O)N=C2S1`, for which, in test [2], the AC50 is 78.8 µM (active). Further, at Aminopeptidase N, the IC50 is 46.1 µM (active).

In the case of `c1ccc2c(c1)SP1Sc3ccccc3P21` (stereo not drawn), the GI50 with P388 is 54.2 µM (inactive); with P388/ADR, 28.2 µM (inactive); in the test on SN12K1, 56.5 µM (inactive).

As to `Cc1[nH]c2ccccc2c1/C=C/c1nc2ccccc2c(=O)[nH]1`, the IC50 in test [3] is 5.55 µM (active).

Consider `COc1cccc2c1C(=O)c1c(O)c3c(c(O)c1C2=O)C[C@@](O)(C(C)=O)C[C@@H]3OC1CC(N(C)C)C(O)C(C)O1` (stereo partly drawn), for which the GI50 in the test with P388, with P388/ADR and in the test with SN12K1 was 0.01 µM (active) each time.

`Cc1cccc(C)c1NC(=O)CSc1nnc(-c2ccccc2)n1Cc1ccc2c(c1)OCO2`: the EC50 in test [1] was 5.4 µM (active).

In the case of `CCCCCCCC(=O)N/N=C(\C)c1ccc(O)cc1O`, the values for the CC50 in test [4], in [5] and in test [6] were 20 µM (active), 20 µM (active) and 12.6 µM (active), respectively.

Turning to `Cc1ccc(-c2n[nH]c3c2C(c2cccc(O)c2)N(c2ccc(C(=O)O)cc2)C3=O)cc1` (stereo not drawn), the IC50 on Aminopeptidase N was 36.6 µM (active).

Take `COc1cc([C@@H]2c3cc4c(c(O)c3C[C@H]3COC(=O)[C@@H]32)OCO4)cc(OC)c1OC` [BETA-PELTATIN A]: the GI50 with P388 and with P388/ADR was 0.015 µM (active) each time.

For the compound `Cc1c(Cl)cccc1NC(=O)c1nc(C)n(-c2cc(OC(C)C)c(Cl)cc2Cl)n1`, the EC50 in test [7] was 2.77 µM (active); in [1] it was 7.19 µM (active); in test [8], > 60 µM (not active).

Regarding `CC(C)NS(=O)(=O)c1ccc(CCC(=O)NCc2ccc3c(c2)OCO3)cc1`, on Aminopeptidase N, the IC50 is 33.6 µM (active).

On to `CC1(C)OC2CC(=O)OCC23C1CC(=O)C1(C)C3CCC2(C)C(c3ccoc3)OC(=O)C3OC321` (stereo not drawn), for which the figures for the GI50 in the test with P388, in the test with P388/ADR and in the test with SN12K1 were > 39.5 µM (inactive), > 125 µM (inactive) and 119 µM (inactive), respectively.

Take `C=CCn1cc(C(=O)NCc2ccco2)c(=O)c2cc(S(=O)(=O)N3CCCCCC3)ccc21`: the EC50 in test [1] is 6.32 µM (active). The IC50 on Fatty acid synthase [9] was 6.69 µM (active); on Fatty acid synthase [10], 7.26 µM (active).

With `Cc1sccc1/C=N/NC(=O)c1cccc2ccccc12`, the concentration for half-maximal inhibition (IC50) in test [3] is reported as 21.1 µM (not active).

Consider `CC(Sc1nnnn1-c1ccccc1)C(=O)Nc1ccc(Cl)cn1` (stereo not drawn), for which the EC50 in [1] was 6.14 µM (active).

Consider `Nc1ccc2c(c1)CN1C(=O)c3ccccc3C1=N2` [DANIQUIDONE], for which the GI50 with P388 is 4.36 µM (inactive); with P388/ADR, 24.8 µM (inactive); in the test on SN12K1, 23.6 µM (inactive).

For the compound `COc1cc(C2c3cc4c(cc3[C@@H](Nc3ccc5c(c3)OCO5)C3COC(=O)[C@H]23)OCO4)cc(OC)c1O` (stereo partly drawn), the GI50 with P388 is < 0.01 µM (active); in the test on P388/ADR, 0.0548 µM (active); with SN12K1, < 0.0414 µM (active).

Consider `O=C(NC1CN2CCC1CC2)c1cc(Cl)c([N+](=O)[O-])c2nc[nH]c12` (stereo not drawn), for which the AC50 in test [11] was 41.6 µM (active). In addition, the EC50 in test [12] is 16.3 µM (active); in test [13] it was 12.1 µM (active).

For the compound `O=S(=O)(c1ccc(Oc2ccc(Cl)cc2)c(S(=O)(=O)N2CCCCC2)c1)N1CCCCC1`, in [1], the EC50 was 2.28 µM (active).

Consider `CCc1ccc(NC(=O)C2CCCCC2C(=O)O)cc1` (stereo not drawn), for which the IC50 on Leucine aminopeptidase is 12.1 µM (active).

On to `CCn1c(NC(=O)c2nn(C)cc2Br)nc2ccccc21`, for which the CC50 in test [4] was > 40 µM (active); in test [5], > 20 µM (active); in test [6], > 20 µM (active); in [14], > 40 µM (active). Also, the IC50 in “cells” is 5.5 µM (active).

For the compound `CN(C)C(=O)OCOC(=O)N(C)C`, the results for the GI50 in the test on P388, in the test on P388/ADR and in the test on SN12K1 were 66.8 µM (inactive), > 100 µM (inactive) and > 100 µM (inactive), respectively.

Take `COc1ccc(CNc2nc3nc(-c4ccccc4)cc(O)n3n2)cc1OC`: the IC50 on Leucine aminopeptidase is 24.2 µM (active).

As to `COc1ccc(/C=N/NC(=O)CSc2nnc(O)nc2O)cc1`, the results for the IC50 on Leucine aminopeptidase and at Aminopeptidase N were 7.36 µM (active) and 29 µM (active), respectively.

On to `CCOc1ccc(NC(=O)CSCC(=O)O)cc1`, for which, on Leucine aminopeptidase, the IC50 was 9.94 µM (active).
